PMC10535624, “Curcuminoid Chalcones: Synthesis, Stability, and New Neuroprotective and Sonosensitising Activities” (Pharmaceuticals, 2023)
Several values for one entry are separate records, joined by “and”; a condition that tells them apart may be missing. Equal entries are not always repeated.

Key:
[1] = system: glutathione peroxidase (GPx); assay: Effect on GPx activity; format: biochemical; details: samples 3 mM/dm^3 in DMSO; mean ± SEM, n = 3
Description: We decided to extend the study by measuring the compounds’ ability to inhibit glutathione reductase (GR) and GPx activities, the human cells’ main endogenous enzymatic defence systems. Therefore, we checked the influence of some curcuminoid chalcones on GR and GPx using in vitro spectroscopic methods (Table 2). Moreover, the effects of curcuminoid chalcones on CAT activity were estimated (Table 2).
(§1) The samples were dissolved in DMSO (Sigma D4540) to obtain a concentration of 3 mM/dm^3.
The analyses were performed strictly as described by Studzińska-Sroka et al..

AChE = AChE (Homo sapiens, UniProt P22303); assay: Effect on AChE activity (modified Ellman's method); format: biochemical; details: samples 3 mM/dm^3 in DMSO, 0.035 mL; mean ± SEM, n = 3
Chain of AChE (P22303 32-614): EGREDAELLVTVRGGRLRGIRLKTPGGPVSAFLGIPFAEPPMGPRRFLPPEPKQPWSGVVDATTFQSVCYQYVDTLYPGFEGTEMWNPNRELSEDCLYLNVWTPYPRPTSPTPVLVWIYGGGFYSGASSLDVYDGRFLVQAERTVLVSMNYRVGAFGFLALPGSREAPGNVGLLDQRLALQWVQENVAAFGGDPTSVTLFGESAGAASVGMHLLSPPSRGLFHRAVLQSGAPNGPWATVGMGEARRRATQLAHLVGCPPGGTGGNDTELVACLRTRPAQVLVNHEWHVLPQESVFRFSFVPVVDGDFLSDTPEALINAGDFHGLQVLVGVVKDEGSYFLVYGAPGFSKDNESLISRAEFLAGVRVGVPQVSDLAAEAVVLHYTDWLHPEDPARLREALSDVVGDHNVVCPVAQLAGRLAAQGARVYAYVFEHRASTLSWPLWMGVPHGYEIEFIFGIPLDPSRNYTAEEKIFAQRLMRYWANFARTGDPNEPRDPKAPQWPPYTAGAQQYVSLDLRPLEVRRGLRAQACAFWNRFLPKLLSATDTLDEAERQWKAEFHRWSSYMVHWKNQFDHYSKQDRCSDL
Text: Neurodegenerative diseases are associated with the progressive damage of neurons. During the development of these diseases, there is a loss of nerve cells and a deficiency of […], serotonin, and norepinephrine levels. The ability to inhibit acetyl- (AChE) and butyrylcholinesterase (BChE) activities is seen, among others, in organophosphorus compounds, carbamate insecticides, phenoxyacetic pesticides, and hydrogen peroxide, as well as aliphatic ketones with the carbons C4–C9, e.g., 2,5-hexandione. AChE and BChE show differences in their susceptibility to inhibitors, behaviour in situations involving excess substrate, or substrate binding specificity. Unlike, other esterases, both enzymes hydrolyse choline esters at very high speeds. Thus, in our work, the modified Elman’s method was used to investigate the anti-AChE and anti-BChE effects of curcuminoid chalcone.
as §1
The analysis was performed strictly as described by Studzińska-Sroka et al., except that the volume of the tested samples added to the reaction mixture was 0.035 mL.

[2] = Stress test: oxidative degradation (RP-HPLC); format: physicochemical; details: for ICH Classification: oxidising environment
Description: Stock solutions of the test substances (2 or 6) were prepared by dissolving 1 mg of each test substance in 1.5 mL of a mixture of DMSO and MeOH (1:6, v/v). Then, 2 mL solutions of compounds 2 and 6 were prepared at ~30 μg/mL in a hydrogen peroxide solution (1, 3, and 10%). The solutions were placed in dark glass vials and encapsulated, and after an appropriate time (Table 1) the samples were diluted with methanol (1:1, v/v) and transferred to the chromatographic column.

[3] = Stress test: strong acid, strong base and neutral degradation (RP-HPLC); format: physicochemical
Description: Several tests were conducted using the ICH guidelines to assess the compound’s stability. In the stress test, two structural isomers of ester-type hybrid compounds were chosen to estimate the structure’s relationship to the compound’s stability. The tested substances were subjected to hydrolysis–solvolysis in neutral, acidic, and alkaline media. As solvents, water, hydrochloric acid, and sodium hydroxide were used in appropriate concentrations.
Reversed-phase HPLC was used to analyse the degree of degradation. Chromatograms were developed with DAD detection at 254 nm, 308 nm (λmax for 2), and 340 nm (λmax for 6). […] .
Then, 2.0 mL samples of the tested solutions (c ~60 µg/mL) were prepared in hydrochloric acid (0.1; 0.01 M) or sodium hydroxide solution (0.1, 0.01 M) and demineralised water. The solutions were transferred to glass vials, encapsulated, and stored in a thermal chamber at 90 °C, 40 °C, or 25 °C. After the appropriate time (Table 1), the samples were cooled, diluted with methanol (1:1), and transferred to the chromatography column.

[4] = Photostability in the solutions (RP-HPLC); format: physicochemical; details: MeOH solution; for % Decomposition / Ct: 1.2 × 10^6 lux·h, 22 h; for ICH Classification: light
Description: However, as a result of the action of light, both compounds degraded completely (Table 6, Figure 12). The study was conducted in methanol solutions, irradiated in quartz cuvettes, and in solutions protected from light (aluminium foil). […] During irradiation, the temperature in the Suntest chamber was 35 °C. It was, therefore, concluded that both compounds are photolabile in solutions. […] The visible peaks with Rt values of 6.3 (Figure 12a,c) and 4.4 min (Figure 12b,d) were impurities of compounds 2 and 6, respectively.
Stock solutions of the test substances (2 or 6) were prepared by dissolving 1 mg of each test substance in 1.5 mL of a mixture of DMSO and MeOH (1:6, v/v). Then, 5 mL solutions of the tested compounds (c ~ 15 µg/mL) in MeOH were prepared. […] Each of the samples (protected and irradiated) was transferred to the chromatographic column. Samples before irradiation were also subjected to chromatographic analysis (t = 0) (Table 2).

BChE = BChE (Homo sapiens, UniProt P06276); format: biochemical; details: samples 3 mM/dm^3 in DMSO, 0.035 mL; mean ± SEM, n = 3
Chain of BChE (P06276 29-602, species assumed): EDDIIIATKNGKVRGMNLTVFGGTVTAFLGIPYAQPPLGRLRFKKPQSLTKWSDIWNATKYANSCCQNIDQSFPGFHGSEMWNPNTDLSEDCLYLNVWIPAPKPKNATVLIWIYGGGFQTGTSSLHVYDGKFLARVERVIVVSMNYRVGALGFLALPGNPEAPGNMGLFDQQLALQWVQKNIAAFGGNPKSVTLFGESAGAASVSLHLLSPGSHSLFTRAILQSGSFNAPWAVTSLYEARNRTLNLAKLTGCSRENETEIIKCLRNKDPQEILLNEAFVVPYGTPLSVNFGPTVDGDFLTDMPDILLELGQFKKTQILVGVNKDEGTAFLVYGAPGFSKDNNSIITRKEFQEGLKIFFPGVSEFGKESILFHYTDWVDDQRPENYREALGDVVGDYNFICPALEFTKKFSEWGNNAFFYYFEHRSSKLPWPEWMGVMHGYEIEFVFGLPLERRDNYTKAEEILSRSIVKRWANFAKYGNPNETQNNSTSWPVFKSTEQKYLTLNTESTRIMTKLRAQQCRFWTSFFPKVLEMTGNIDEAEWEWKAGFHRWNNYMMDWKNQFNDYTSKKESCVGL

[5] = Photostability in the solid state (IR spectra of KBr tablets); details: for ICH Classification: light, solid phase; for Compatibility of the IR spectrum with the spectrum before irradiation: solid phase (KBr tablet)
[6] = acidic environment, HCl 0.01 M, 40 °C, 8 h
[7] = alkaline environment, NaOH 0.01 M, 25 °C, 2 h
[8] = neutral environment, H2O, 90 °C, 24 h
[9] = protected from light (aluminium foil), 35 °C
[10] = not protected, 1.2 × 10^6 lux·h
[11] = not protected, 6.0 × 10^6 lux·h

Row | Structure (SMILES) | GPx Inhibition (%) [1] | GPx activity (NADPH consumption rate) [1] | AChE % (inhibition) (AChE) | AChE, Equivalent Concentration of Reference Compound Magniflorine (AChE) | AChE, Equivalent Concentration of Reference Compound Rivastigmine (AChE) | % Decomposition ([2]; H2O2 1%, 30 min) | Ct ([2]; H2O2 1%, 30 min) | % Decomposition ([2]; H2O2 3%, 24 h) | Ct ([2]; H2O2 3%, 24 h) | % Decomposition ([2]; H2O2 10%, 24 h) | Ct ([2]; H2O2 10%, 24 h) | ICH Classification ([2]; H2O2 10%, 24 h) | % Decomposition ([3]; H2O, 90 °C, 24 h) | Ct ([3]; H2O, 90 °C, 24 h) | % Decomposition ([3]; HCl 0.01 M, 40 °C, 8 h) | Ct ([3]; HCl 0.01 M, 40 °C, 8 h) | % Decomposition ([3]; HCl 0.1 M, 90 °C, 16 h) | Ct ([3]; HCl 0.1 M, 90 °C, 16 h) | % Decomposition ([3]; NaOH 0.01 M, 25 °C, 2 h) | Ct ([3]; NaOH 0.01 M, 25 °C, 2 h) | other results
1 | COc1cc(C=CC(=O)c2ccccc2)ccc1OC(=O)C(C)c1ccc(CC(C)C)cc1 (stereo not shown) [Compound 2, 2-Methoxy-4-(3-oxo-3-phenylprop-1-en-1-yl)phenyl-2-(4-isobutylphenyl)-propionate] | 17.0 ± 3.4% | 33.8 ± 6.8 nmol Depleted NADPH/min | 90.5 ± 4.2% | 0.34 ± 0.02 µg/mL | 0.52 ± 0.02 µg/mL | <0.5% | 29.9 µg/mL | <0.5% | 29.8 µg/mL | <0.5% | 30.1 µg/mL | practically stable | 24.4% | 46.3 µg/mL | 44% and 43.8% | 33.7 µg/mL | 91.8% | 5.0 µg/mL | 100% | 0 µg/mL | % Decomposition ([3]; NaOH 0.1 M, 90 °C, 16 h): 100%; Ct ([3]; NaOH 0.1 M, 90 °C, 16 h): 0 µg/mL; ICH Classification [3, 6]: very unstable; ICH Classification [3, 7]: extremely unstable; ICH Classification [3, 8]: unstable; % Decomposition ([4]; not protected): 100%; Ct ([4]; not protected): 0 µg/mL; % Decomposition [4, 9]: 68% and 68.2%; Ct [4, 9]: 4.8 µg/mL; ICH Classification [4]: Photolabile; BChE % (inhibition) (BChE): 89.7 ± 4.8%; BChE, Equivalent Concentration of Reference Compound Magniflorine (BChE): 0.35 ± 0.02 µg/mL; BChE, Equivalent Concentration of Reference Compound Rivastigmine (BChE): 0.26 ± 0.01 µg/mL; ICH Classification [5]: Photolabile; Compatibility of the IR spectrum with the spectrum before irradiation [5, 10]: 0.9404; Compatibility of the IR spectrum with the spectrum before irradiation [5, 11]: 0.9017; Compatibility of the IR spectrum with the spectrum before irradiation ([5]; protected, 1.2 × 10^6 lux·h): 0.9995; Compatibility of the IR spectrum with the spectrum before irradiation ([5]; protected, 6.0 × 10^6 lux·h): 0.9994
2 | COc1ccc(C=CC(=O)c2ccccc2)cc1OC(=O)C(C)c1ccc(CC(C)C)cc1 (stereo not shown) [Compound 6, 2-Methoxy-5-(3-oxo-3-phenylprop-1-en-1-yl)phenyl-2-(4-isobutylphenyl)-propionate] | 17.4 ± 1.7% | 34.6 ± 3.3 nmol Depleted NADPH/min | 73.7 ± 5.1% | 0.28 ± 0.02 µg/mL | 0.42 ± 0.03 µg/mL | <0.5% | 29.7 µg/mL | <0.5% | 29.9 µg/mL | <0.5% | 30.0 µg/mL | practically stable | 23.9% | 50.9 µg/mL | 18% and 17.8% | 49.3 µg/mL | 97.8% | 1.5 µg/mL | 100% | 0 µg/mL | % Decomposition ([3]; NaOH 0.1 M, 90 °C, 16 h): 100%; Ct ([3]; NaOH 0.1 M, 90 °C, 16 h): 0 µg/mL; ICH Classification [3, 6]: very unstable; ICH Classification [3, 7]: extremely unstable; ICH Classification [3, 8]: unstable; % Decomposition ([4]; not protected): 100%; Ct ([4]; not protected): 0 µg/mL; % Decomposition [4, 9]: 7.9%; Ct [4, 9]: 13.8 µg/mL; ICH Classification [4]: Photolabile; BChE % (inhibition) (BChE): 77.3 ± 5.2%; BChE, Equivalent Concentration of Reference Compound Magniflorine (BChE): 0.30 ± 0.02 µg/mL; BChE, Equivalent Concentration of Reference Compound Rivastigmine (BChE): 0.22 ± 0.02 µg/mL; ICH Classification [5]: Photolabile; Compatibility of the IR spectrum with the spectrum before irradiation [5, 10]: 0.9962; Compatibility of the IR spectrum with the spectrum before irradiation [5, 11]: 0.9752; Compatibility of the IR spectrum with the spectrum before irradiation ([5]; protected, 1.2 × 10^6 lux·h): 0.9997; Compatibility of the IR spectrum with the spectrum before irradiation ([5]; protected, 6.0 × 10^6 lux·h): 0.9993
